Measured values published in patent US11248016B2, “Glycolipids and pharmaceutical compositions thereof for use in therapy” (THE UNIVERSITY OF NOTTINGHAM, priority 2014, dated 2022).

Legend:
NLGN1 5′UTR = experiment: NLGN translation reporter assay, neuroligin 1; assay type: cell-based, human; settings: FIG. 5: 1 μM Hippuristanol, 1.3 μM compound; FIG. 10: compound 46
Description: (§1) The mechanism of action and level of activity of Formula II are consistent with and comparative to a proven translational inhibitor extracted from a rare coral species (Hippuristanol—a proven inhibitor of eIf4A). In this experiment 1 μM of Hippuristanol and 1.3 μM of Formula I was used
(§2) FIG. 10—Compound 46, NLGN Translation reporter assay.
Direct evidence is provided that inhibiting eIF4A represents a new route to treating ASD based on the data presented by Gkogkas et al. Nature 2013, 493:371-7.
Treatment with the compound of Formula II (and compound 46) (FIG. 5 and FIG. 10) selectively decrease the firefly luciferase signal from a reporter construct containing the NLGN1 5′UTR upstream of a firefly luciferase gene. The translation of luciferase reporters downstream of the NLGN1 5′UTR has been proven to be dependent on the activity of the translation initiation complex eIF4F (Gkogkas et al Nature 2013, 493:371-7)—a complex containing the helicase eIF4A. Equivalent treatment had little effect on the signal generated from either a co-transfected renilla luciferase reporter control or cells transfected with an equivalent construct containing the NLGN2 5′UTR upstream of a firefly luciferase gene (FIG. 5 and FIG. 10).
Experiments conducted using Firefly luciferase reporter plasmids containing the 5′ untranslated regions (UTRs) of the genes amyloid precursor protein (APP), thioredoxin (TXN) were conducted with reagents and materials described by Bottley et al, 2010. Experiments conducted using Firefly luciferase reporter plasmids containing the 5′ UTRs of the genes EGFR, BACE1 and Actin were conducted with reagents and materials described by Webb, 2012 (http://etheses.nottingham.ac.uk/2724/). […]
(§3) Cells were transfected using FuGene 6 (Roche) following the manufacturer's instructions. The activities of firefly and renilla luciferase in lysates prepared from transfected cells were measured using a commercially available Luciferase reporter assay system (Promega) and light emission was measured over a 10 sec interval using a TECAN luminometer. […]

[1] = system: primary canine histocytic sarcoma tumour cells; experiment: Primary canine tumour cell experiments; assay type: cell-based, dog; settings: Cisplatin (10 μM) plus Formula II, 6 days
Description: Cells were cultured for 6 days with a single dose treatment of Cisplatin™ (10 μM) or a combination of Cisplatin™ plus a compound of Formula II (active). Images were taken after 6 days treatment and are representative of three independently treated wells. Each image (40× magnification) represents the majority of the well area and is of an equivalent area in each photograph.
(§4) Known inhibitors of protein synthesis such as hippuristanol have proven potent anti-cancer properties when used in combination with chemotherapeutic agents such as Cisplatin™ or Doxorubicin™. However hippuristanol is naturally found in coral to is scarce and expensive to obtain, furthermore it is very difficult and expensive to synthesise. […] In particular this combination has a potent effect at slowing proliferation or killing cancer cells. Slow growing and difficult to treat tumour cell types such as A549 lung cancer cells, SH-SY5Y neuroblastoma or SKOV-3 cancer cells are all sensitised by exposure to Formula II to very low doses of Cisplatin™ (FIGS. 4d, 4e, 4f and 7)—a complete kill can be achieved in both A549 and SH-SY5Y cells after a single dose treatment with g quantities of a compound of Formula II in combination with 1 μM or 2.5 μM treatments of Cisplatin™. […]

[2] = system: Neuroblastoma cells (SH-SY5Y); experiment: Polysome profiling (sucrose density); assay type: cell-based, human
Description: Established techniques such as polysome profiling were used to show a reduction in the number of polyribosomes in neuroblastoma cells after treatment with a compound of Formula II. Polysome peaks from left to right show increasing number of ribosomes associated with mRNA. This peaks at 3 ribosomes after treatment with a compound of Formula II showing rapid and reproducible perturbation of translation. Cells were treated for 20 minutes with a compound of Formula II then harvested and prepared as described in materials and methods. The supernatants were loaded onto 10-50% sucrose gradients and spun for 2 hrs at 38,000 RPM. Gradients were visualised using a UV detector.
The number of ribosomes is indicative of the translation of an mRNA and synthesis of the protein encoded by the mRNA, and treatment with the compound of Formula II decreases the number of ribosomes per message thereby reducing global protein synthesis.
Polysome profiles were obtained using sucrose density centrifugation. Briefly one 15 cm plate of cultured Neuroblastoma cells (SH-SY5Y) were grown per treatment to a confluency of 70%. Cells were then treated with either active or equivalent DMSO vehicle control for 20 min. […] Gradients were fractionated and polysome profiles determined through a continuous monitoring at absorbance 260 nm (described previously Johannes et al. 1999).

[3] = system: CrPV IRES-dependent translation; experiment: CrPV assay, IRES-dependent translation (Renilla luciferase); assay type: cell-based; settings: 3 hours treatment
Description: FIG. 12—CrPV assay—Natural molecule targets eIF4A.
By using a well characterised luciferase based reporter assay it was further determined that this class of molecule functions as a protein synthesis inhibitor via targeting the helicase eIF4A.

white blood cells = experiment: White blood cells in the primary canine tissue sample; assay type: cell-based; settings: seen under the microscope, 6 days
Description: as §4, with “Cisplatin™. A similar effect is observed when rapidly growing tumour cell lines or primary tumour cells (FIG. 8) are treated with a compound of Formula II and chemotherapeutics such as Cisplatin™. In this example primary tumour cells were isolated from a dog and then in vitro exposed to the compound of Formula II and Cisplatin™.” for “Cisplatin™.”

NLGN2 5′UTR = experiment: NLGN translation reporter assay, neuroligin 2; assay type: cell-based, human; settings: equivalent treatment; FIG. 5 and FIG. 10
Description: as §1, §2
Treatment with the compound of Formula II (and compound 46) (FIG. 5 and FIG. 10) selectively decrease the firefly luciferase signal from a reporter construct containing the NLGN1 5′UTR upstream of a firefly luciferase gene. The translation of luciferase reporters downstream of the NLGN1 5′UTR has been proven to be dependent on the activity of the translation initiation complex eIF4F (Gkogkas et al Nature 2013, 493:371-7)—a complex containing the helicase eIF4A. […]
as §3

[4] = system: SH-SY5Y neuroblastoma cancer cells; experiment: Cell proliferation, SH-SY5Y; assay type: cell-based; settings: 96 hours, plus 2.5 μM Cisplatin, higher doses (10 μg) of Formula II

SMILES: CC/C=C\C/C=C\C/C=C\CCCCCCCC(=O)OC[C@H](COC1OC(CO)C(O)C(O)C1O)OC(=O)CCCCCCC/C=C\C/C=C\C/C=C\CC (stereo partly drawn) [Formula II, 1,2-dioctadecatienyl-3-O-β-D-galactosyl-sn-glycerol]
- translation of NLGN1 5′UTR firefly luciferase reporter relative to neuroligin 2 (NLGN1 5′UTR): selectively reduces the translation
- canine tumour cells after Cisplatin plus Formula II [1]: substantially all tumour cells were killed
- polysome peak, number of ribosomes associated with mRNA ([2]; after treatment, 20 minutes): 3 ribosomes
- amount of polyribosomes ([2]; cells treated for 20 minutes, 10-50% sucrose gradients): reduction in the amount of polyribosomes
- CrPV IRES-dependent translation (Renilla luciferase signal) [3]: but not CrPV IRES-dependent translation (Renilla luciferase signal), was inhibited
- white blood cells after Cisplatin and Formula II treatment (white blood cells): still alive
- signal of NLGN2 5′UTR firefly luciferase reporter (NLGN2 5′UTR): little effect
- kill of SH-SY5Y cells in combination with Cisplatin [4]: complete kill
